Results: US20080241943A1, “Subnanomolar Precipitator of Thiophilic Metals” (The Scripps Research Institute, priority 2004, published 2008)

Assays:
[1] = Thiophilic metal precipitation by ligand, panel of metal ions; type: physicochemical; conditions: spectroscopic analyses; did not correlate with Ksp
Description: (§1) General procedure for thiophilic metal precipitation. A 10 μL aliquot of a 200 mM stock of metal ion in water was incubated at room temperature with 200 μL of a 10 mM stock of ligand 3a in CH3CN. Red precipitates from 3a appeared upon increasing the amount of water in the final reaction mixture to over 20% (v/v). The formation of these red precipitates provided an ideal tool for verification of sample quality. Red precipitates from 3a were readily removed by triturating the precipitate with acetonitrile.

[2] = Thiophilic metal precipitation by ligand; type: physicochemical; conditions: for metal salt concentration at which precipitation was visually apparent: 10% aqueous CH3CN
Description: as §1

[3] = Determination of the extent of metal precipitation (vapor atomic absorption of supernatant); type: physicochemical; conditions: after reacting 6.7±0.01 mM Hg(OAc)2 with 6.7±0.01 mM 3a
Description: Determination of the extent of metal precipitation. An 167 μL aliquot of a 20 mM stock of Hg(OAc)2 in water was incubated at room temperature with 333 μL of a 10 mM stock of ligand 3 in CH3CN. Precipitation occurred immediately. After 5 minutes the sample was centrifuged for 5 min at 14,000×g. The supernatant was removed and an aliquot submitted to vapor atomic absorption analysis (Galbraith Laboratories, Knoxyille, Tenn.).

[4] = Heavy metal competitions (precipitation in the presence of other metal ions); type: physicochemical; conditions: mixtures containing Cu^2+
Description: (§2) Determination of solubility products (Ksp). Weight analysis (FIG. 2A): Ksp values were determined either by weighing the amount of precipitate 4a. Scale-up was required to provide sufficient material for analysis on conventional microbalances. The following procedure was used for this analysis: a 100 μL aliquot of a 200 mM stock of metal ion in water was incubated at room temperature with 2 mL of a 10 mM stock of ligand 3a in acetonitrile. After 10 minutes the precipitate was isolated by centrifugation for 5 min at 2,000×g, washed with acetonitrile (5 ml), methanol (5 ml) and dried in vacuo. Spectrophotometric analysis (FIG. 2B): A 10 μL aliquot of a 200 mM stock of metal ion in water was added to 200 μL of a 10 mM stock of ligand 3a in acetonitrile in a spin filter (Millipore). After 10 minutes at rt, the precipitate was removed by centrifugation at 2,000×g. Spectroscopic analysis of the supernatant was performed on a conventional microarray reader (PerSeptive Biosystems CytoFluor or Perkin Elmer HST 7000 plate reader).
Heavy metal competitions. A 167 μL aliquot of a 20 mM stock of metal ion in water was incubated at room temperature with 333 μL of a 10 mM stock of ligand 3a in acetonitrile. […] The supernatant was analyzed on a PerSeptive Biosystems CytoFluor or Perkin Elmer HST 7000 plate reader using excitation at 510 nm. […]

[5] = Determination of solubility products (Ksp), reproducibility; type: physicochemical; conditions: concentrations 1 mM-0.1 μM, pH 3-10, temperature 0-50° C.
Description: as §2

[6] = Precipitation of free ligand from aqueous CH3CN; type: physicochemical; conditions: 10 mM 3a stock in CH3CN, room temperature
Description: as §1

[7] = cited from earlier work

**Q.** Which “rate of precipitation (order of metal ions)” value [1] does the source give for `S=C1SC(c2ccccc2)(c2ccccc2)c2ccccc21` [3a, 3,3-Diphenylbenzo[c]thiophene-1(3H)-thione] here?
**A.** Its value is “Hg^2+>Pb^2+>Cd^2+>(Au^3+˜Cu^2+)>(Pd^2+˜Ni^2+)>(Co^2+˜Mo^2+˜Pt^2+)”.

**Q.** And the “metal salt concentration at which precipitation was visually apparent” value (“metal salt concentration” for short) ([2]; CdCl2 added to 25 μM 3a)?
**A.** Its value is 50 µM.

**Q.** And the “metal salt concentration” value ([2]; Hg(OAc)2 added to 1 μM 3a)?
**A.** Its value is 2 µM.

**Q.** What about the “metal salt concentration” value ([2]; Pb(OAc)2 added to 5 μM 3a) of the same molecule?
**A.** Its value is 10 µM.

**Q.** And the “amount of Hg^2+ left in supernatant” value [3]?
**A.** The value was 0.58 ± 0.03 µM.

**Q.** What about the “Cu^2+ tolerated in analysis of Hg^2+, Pb^2+ and Cd^2+” value [4] of the same molecule?
**A.** Its value is 500 equivalents.

**Q.** What about the “deviation of Ksp values” [5] of the same molecule?
**A.** The value was no more than 1%.

**Q.** And the “amount of water in the final reaction mixture at which red precipitates from 3a appeared” value [6]?
**A.** Its value is “over 20 % (v/v)”.

**Q.** Which results are given for `CCCCCCCCCCc1ccc(C2(c3ccc(CCCCCCCCCC)cc3)SC(=S)c3ccccc32)cc1` [3b, 3,3-Bis(4-decylphenyl)benzo[c]thiophene-1(3H)-thione]?
**A.** induction time of precipitation ([2]; by Hg^2+): > 5 min; induction time of precipitation ([2]; by Pb^2+): > 5 min

**Q.** Which results are given for `O=C(O)CN(CC(=O)O)c1ccc(-c2c3cc(F)c(=O)cc-3oc3cc(O)c(F)cc23)cc1OCCOc1cc([N+](=O)[O-])ccc1N(CC(=O)O)CC(=O)O` [Fluo-5N]?
**A.** affinity to Cd^2+ relative to La^3+ ([7]; at 1 μM): O-fold; affinity for La^3+ over Cd^2+ ([7]; at 100 μM): 2 fold
